For eleven molecules, IC50 results are on record in patent publication US10508109B2 (priority 2015, dated 2019).

Like-named read-outs stand apart in the source and are kept apart here.

The subject of one test is A549. Nature of the test: Cell-based assay, anti-proliferative activity (Cell Counting Kit-8, 72 hours). The note with it: Homo sapiens, read-out: A549 IC50. The procedure, abridged:
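Seed cells in 96-well format; add inhibitors; measure growth by CCK-8 at end of exposure; derive IC50.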
In general terms: Tetrazolium dyes change colour on reduction, which living cells bring about.

The target in the next test is SUV39H2 (Homo sapiens (Human), UniProt Q9H5I1). Description: biochemical. The test is classed as biochemical. Conditions: 3H-SAM 100 nM, H3 Histone Peptide 350 nM, room temperature 3 hours. The essentials:
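Scintillation proximity format: reactions were halted with streptavidin SPA beads (50 μg/well final) after 3 h at room temperature with enzyme dosed by lot-specific activity.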

The mark [1] stands for this setting: A549 cells, 72 hours exposure, Cell Counting Kit-8.

SUV39H2, sequence (Q9H5I1 whole entry): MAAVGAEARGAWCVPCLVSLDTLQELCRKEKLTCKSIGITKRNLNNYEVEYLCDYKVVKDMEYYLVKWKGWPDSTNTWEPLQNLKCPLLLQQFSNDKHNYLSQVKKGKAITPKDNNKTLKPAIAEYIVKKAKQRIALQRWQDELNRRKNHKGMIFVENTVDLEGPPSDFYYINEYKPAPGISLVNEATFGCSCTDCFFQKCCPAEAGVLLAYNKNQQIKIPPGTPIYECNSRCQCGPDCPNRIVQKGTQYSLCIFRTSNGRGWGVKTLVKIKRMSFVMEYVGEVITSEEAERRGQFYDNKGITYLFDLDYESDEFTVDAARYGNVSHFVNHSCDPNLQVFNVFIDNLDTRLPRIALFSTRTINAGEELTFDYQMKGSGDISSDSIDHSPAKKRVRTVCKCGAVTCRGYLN

As to `COc1cc(OC)c(-c2cn3ccc(N4CCN(Cc5ccncc5F)CC4)cc3n2)cc1Cl` [Example 336, 2-(5-chloro-2,4-dimethoxyphenyl)-7-(4-((3-fluoropyridin-4-yl)methyl)piperazin-1-yl)imidazo[1,2-a]pyridine], the 50% inhibitory concentration (IC50) (usually the concentration needed to halve the response being measured) with A549 (setting [1]) turned out to be 970 nM; at SUV39H2, 16.1 nM.

For `COc1cc(OC)c(-c2cn3ccc(N4CCN(Cc5ccncc5Br)CC4)cc3n2)cc1Cl` [Example 345, 7-(4-((3-bromopyridin-4-yl)methyl)piperazin-1-yl)-2-(5-chloro-2,4-dimethoxyphenyl)imidazo[1,2-a]pyridine], the 50% inhibitory concentration (IC50) was 850 nM in the test with A549 (setting [1]) and 35.4 nM at SUV39H2.

`COc1cc(OC)c(-c2cn3ccc(N4CCN(c5nc(N)nc(N6CCCC6)n5)CC4)cc3n2)cc1Cl` [Example 431, 4-(4-(2-(5-chloro-2,4-dimethoxyphenyl)imidazo[1,2-a]pyridin-7-yl)piperazin-1-yl)-6-(pyrrolidin-1-yl)-1,3,5-triazin-2-amine]: the IC50 in the test with A549 (setting [1]) was 760 nM; against SUV39H2, 88.4 nM.

Turning to `COc1cc(OC)c(-c2cn3ccc(N4CCN(c5ncc([N+](=O)[O-])cc5C#N)CC4)cc3n2)cc1Cl` [Example 349, 2-(4-(2-(5-chloro-2,4-dimethoxyphenyl)imidazo[1,2-a]pyridin-7-yl)piperazin-1-yl)-5-nitronicotinonitrile], the IC50 in the test with A549 (setting [1]) is 610 nM; against SUV39H2, 14.9 nM.

Regarding `COc1ccc(CN[C@H]2CC[C@@H](Nc3ccn4cc(-c5cc(Cl)c(OC)cc5OC)nc4c3)CC2)cc1` [Example 380, cis-N^1-(2-(5-chloro-2,4-dimethoxyphenyl)imidazo[1,2-a]pyridin-7-yl)-N^4-(4-methoxybenzyl)cyclohexane-1,4-diamine bis(2,2,2-trifluoroacetate)], the concentration for half-maximal inhibition (IC50) in the test with A549 (setting [1]) worked out at 600 nM; at SUV39H2, 33.3 nM.

As for `COc1cc(OC)c(-c2cn3ccc(N4CC[C@H](NCC5CCN(C(=O)OC(C)(C)C)CC5)C4)cc3n2)cc1Cl` [Example 400, (S)-tert-butyl 4-(((1-(2-(5-chloro-2,4-dimethoxyphenyl)imidazo[1,2-a]pyridine-7-yl)pyrrolidin-3-yl)amino)methyl)piperidine-1-carboxylate], the figures for the 50% inhibitory concentration (IC50) in the test with A549 (setting [1]) and on SUV39H2 were 930 nM and 7.15 nM, respectively.

For `COc1cc(OC)c(-c2cn3ccc(N4CCN(c5cnc(N6CCCC(N)C6)nc5)CC4)cc3n2)cc1Cl` (stereo not shown) [Example 417, 1-(5-(4-(2-(5-chloro-2,4-dimethoxyphenyl)imidazo[1,2-a]pyridin-7-yl)piperazin-1-yl)pyrimidin-2-yl)piperidin-3-amine], the IC50 with A549 (setting [1]) is 620 nM; against SUV39H2, 9.91 nM.

For `COc1cc(OC)c(-c2cn3ccc(N4CCN(C(=O)c5ccncc5)CC4)cc3n2)cc1Cl` [Example 319, (4-(2-(5-chloro-2,4-dimethoxyphenyl)imidazo[1,2-a]pyridin-7-yl)piperazin-1-yl)(pyridin-4-yl)methanone], the results for the IC50 with A549 (setting [1]) and on SUV39H2 were 4600 nM and 16.4 nM, respectively.

In the case of `COc1cc(OC)c(-c2cn3ccc(N4CCN(c5cnc(N6CCN(C)CC6)nc5)CC4)cc3n2)cc1Cl` [Example 358, 2-(5-chloro-2,4-dimethoxyphenyl)-7-(4-(2-(4-methylpiperazin-1-yl)pyrimidin-5-yl)piperazin-1-yl)imidazo[1,2-a]pyridine], the results for the half-maximal inhibitory concentration (IC50) with A549 (setting [1]) and against SUV39H2 were 390 nM and 17.1 nM, respectively.

Take `COc1cc(OC)c(-c2cn3ccc(N4CCN(c5ccnc(N6CCNC(C)C6)n5)CC4)cc3n2)cc1Cl` (stereo not shown) [Example 362, 2-(5-chloro-2,4-dimethoxyphenyl)-7-(4-(2-(3-methylpiperazin-1-yl)pyrimidin-4-yl)piperazin-1-yl)imidazo[1,2-a]pyridine]: the IC50 in the test on A549 (setting [1]) was found to be 680 nM; on SUV39H2, 15.5 nM.

In the case of `CNc1ccnc(N2CCN(c3ccn4cc(-c5cc(Cl)c(OC)cc5OC)nc4c3)CC2)n1` [Example 364, 2-(4-(2-(5-chloro-2,4-dimethoxyphenyl)imidazo[1,2-a]pyridin-7-yl)piperazin-1-yl)-N-methylpyrimidin-4-amine], the IC50 in the test with A549 (A549, 72 h) was found to be 550 nM; on SUV39H2 it was 40.7 nM.
